Source: the NIST ThermoML archive (doi:10.1021/je0500431)
Numbers after ± are expanded uncertainties.

Settings: for surface tension liquid-gas: Ring tensiometer; for mass density: 101.33 kPa, Liquid

| SMILES | surface tension liquid-gas (293.15 K) [mN/m] | mass density (293.15 K) [kg/m3] | surface tension liquid-gas (298.15 K) [mN/m] | mass density (298.15 K) [kg/m3] | surface tension liquid-gas (303.15 K) [mN/m] | surface tension liquid-gas (308.15 K) [mN/m] | surface tension liquid-gas (313.15 K) [mN/m] | surface tension liquid-gas (318.15 K) [mN/m] | mass density (318.15 K) [kg/m3] | surface tension liquid-gas (323.15 K) [mN/m] |
| --- | --- | --- | --- | --- | --- | --- | --- | --- | --- | --- |
| CCC(C)O (stereo not given) [butan-2-ol] | 23.18 ± 0.35 | 807.1 ± 0.6 | 22.74 ± 0.34 | 802.9 ± 0.6 | 22.38 ± 0.34 | 21.94 ± 0.33 | 21.56 ± 0.33 | 21.11 ± 0.32 | 785.5 ± 0.6 | 20.76 ± 0.32 |
| CCCCCO [pentan-1-ol] | 25.69 ± 0.46 | 815.3 ± 1 | 25.29 ± 0.45 | 811.6 ± 1 | 24.86 ± 0.44 | 24.49 ± 0.44 | 24.06 ± 0.43 | 23.67 ± 0.42 | 796.6 ± 1 | 23.3 ± 0.42 |
| CCCC(C)O (stereo not given) [pentan-2-ol] | 23.7 ± 0.43 | 809.8 ± 1 | 23.28 ± 0.42 | 805.7 ± 1 | 22.87 ± 0.41 | 22.43 ± 0.41 | 22.04 ± 0.4 | 21.6 ± 0.39 | 788.8 ± 1 | 21.16 ± 0.39 |
| CCCO [propan-1-ol] | 23.73 ± 0.37 | 803.1 ± 0.7 | 23.3 ± 0.37 | 799.3 ± 0.7 | 22.9 ± 0.36 | 22.52 ± 0.36 | 22.1 ± 0.35 | 21.68 ± 0.35 | 783.2 ± 0.7 | 21.27 ± 0.34 |
| CC(C)O [propan-2-ol] | 21.3 ± 0.34 | 785.1 ± 0.7 | 20.95 ± 0.34 | 780.9 ± 0.8 | 20.55 ± 0.33 | 20.2 ± 0.33 | 19.83 ± 0.32 | 19.47 ± 0.32 | 763.3 ± 0.8 | 19.09 ± 0.31 |
